Source: patent US20240343747A1, “Heteroaryl compounds as inhibitors of TYK2, composition and application thereof” (Accro Bioscience (HK) Limited, priority 2021, published 2024)

Key:
[1] = target: TYK2 (Mus musculus (Mouse), UniProt Q9R117); assay: Luciferase assay in L929 ISRE cells stimulated with IFN-α; format: cell-based; conditions: IFN-α 100 ng/mL; for inhibition at 1 µM: 1000 nM, read-out: Inhibitory activity % (1000 nM); for inhibition at 0.1 µM: 100 nM, read-out: Inhibitory activity % (100 nM); for inhibition at 0.05 µM: 50 nM, read-out: Inhibitory activity % (50 nM); for inhibition at 0.2 µM: 200 nM, read-out: Inhibitory activity % (200 nM); for inhibition at 0.01 µM: 10 nM, read-out: Inhibitory activity % (10 nM)
Chain of TYK2 (Q9R117 whole entry): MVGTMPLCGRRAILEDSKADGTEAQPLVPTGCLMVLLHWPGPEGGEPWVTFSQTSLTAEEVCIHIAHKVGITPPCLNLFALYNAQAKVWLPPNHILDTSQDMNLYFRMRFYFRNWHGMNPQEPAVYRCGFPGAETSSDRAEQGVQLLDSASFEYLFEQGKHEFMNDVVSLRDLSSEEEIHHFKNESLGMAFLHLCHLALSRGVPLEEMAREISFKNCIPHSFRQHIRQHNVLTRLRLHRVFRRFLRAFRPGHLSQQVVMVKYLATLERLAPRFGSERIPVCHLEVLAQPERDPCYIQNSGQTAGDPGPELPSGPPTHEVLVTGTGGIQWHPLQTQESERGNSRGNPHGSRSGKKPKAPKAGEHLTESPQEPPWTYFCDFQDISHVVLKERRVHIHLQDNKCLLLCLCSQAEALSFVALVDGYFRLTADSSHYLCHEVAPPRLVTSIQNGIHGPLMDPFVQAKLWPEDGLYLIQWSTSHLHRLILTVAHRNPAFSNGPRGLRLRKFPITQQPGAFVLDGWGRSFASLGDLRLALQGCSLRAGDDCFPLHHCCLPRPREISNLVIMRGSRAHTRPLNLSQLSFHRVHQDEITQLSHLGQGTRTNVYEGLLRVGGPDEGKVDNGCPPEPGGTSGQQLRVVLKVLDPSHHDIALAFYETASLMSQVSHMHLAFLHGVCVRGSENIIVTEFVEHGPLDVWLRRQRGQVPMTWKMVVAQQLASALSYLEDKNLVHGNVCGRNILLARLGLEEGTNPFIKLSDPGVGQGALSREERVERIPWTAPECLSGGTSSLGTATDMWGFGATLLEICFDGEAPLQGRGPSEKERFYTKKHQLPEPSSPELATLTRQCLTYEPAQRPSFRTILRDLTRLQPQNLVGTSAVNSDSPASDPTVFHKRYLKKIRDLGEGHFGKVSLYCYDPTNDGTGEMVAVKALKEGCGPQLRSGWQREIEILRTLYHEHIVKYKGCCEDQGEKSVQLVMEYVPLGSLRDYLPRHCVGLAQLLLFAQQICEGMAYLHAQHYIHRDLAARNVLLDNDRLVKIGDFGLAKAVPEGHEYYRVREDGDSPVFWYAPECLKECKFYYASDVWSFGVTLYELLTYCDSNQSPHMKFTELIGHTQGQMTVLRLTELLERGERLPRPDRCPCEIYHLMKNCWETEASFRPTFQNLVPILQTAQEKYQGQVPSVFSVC
Procedure: • 1. L929 ISRE cells (5000 cells/well) were seeded on 96-well plates and incubated overnight at room temperature; • 2. The cells were pretreated by adding different concentrations (10 nM, 50 nM, 100 nM, 200 nM or 1000 nM) of the test compounds for 2 hours; • 3. Added IFN-α (100 ng/mL) to stimulate cells for 6 hours; • 4. Removed the upper medium, add PBS (100 μL) and washed, then removed PBS; • 5. Added PLB lysis solution (50 μL) to each well, shook the well for 15 minutes; • 6. Transferred PLB lysis solution (30 μL) to a new 96-well whiteboard, added LAR II reagent (LAR II), then quickly read the […]; • 7. Added Stop & Glo reagent (30 μL), then read the 450 nm OD value using the plate washer. • 8. The final results in Table 3 were the OD value in step 6/OD value in step 7.

[2] = target: TYK2 JH2 (Homo sapiens (Human), UniProt P29597); assay: Competitive binding assay (kinase-tagged phage, qPCR), TYK2 JH2
Chain of TYK2 JH2 (P29597 589-875): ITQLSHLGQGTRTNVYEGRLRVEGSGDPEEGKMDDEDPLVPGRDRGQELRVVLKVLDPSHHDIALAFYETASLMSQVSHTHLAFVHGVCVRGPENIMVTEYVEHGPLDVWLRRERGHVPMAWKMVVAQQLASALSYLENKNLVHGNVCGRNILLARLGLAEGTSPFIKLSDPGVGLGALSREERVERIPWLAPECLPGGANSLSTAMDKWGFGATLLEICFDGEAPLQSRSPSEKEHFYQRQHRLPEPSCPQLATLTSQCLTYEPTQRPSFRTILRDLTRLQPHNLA
Procedure: For most assays, kinase-tagged T7 phage strains were prepared in an E. coli host derived from the BL21 strain. E. coli were grown to log-phase and infected with T7 phage and incubated with shaking at 32° C. until lysis. The lysates were centrifuged and filtered to remove cell debris. The remaining kinases were produced in HEK-293 cells and subsequently tagged with DNA for qPCR detection. Streptavidin coated magnetic beads were treated with biotinylated small molecule ligands for 30 minutes at room temperature to generate affinity resins for kinase assays. The liganded beads were blocked with excess biotin and washed with blocking buffer (SeaBlock (Pierce), 1% BSA, 0.05% Tween 20, 1 mM DTT) to remove unbound ligand and to reduce non-specific binding. […] Test compounds were prepared as 111X stocks in 100% DMSO. Dissociation constants (Kds) were determined using an 11-point 3-fold compound dilution series with three DMSO control points. All compounds for Kd measurements are distributed by acoustic transfer (non-contact dispensing) in 100% DMSO. The compounds were then diluted directly into the assays such that the final concentration of DMSO was 0.9%. All reactions performed in polypropylene 384-well plate. Each was a final volume of 0.02 ml. The assay plates were incubated at room temperature with shaking for 1 hour and the affinity beads were washed with wash buffer (1×PBS, 0.05% Tween 20). The beads were then re-suspended in elution buffer (1×PBS, 0.05% Tween 20, 0.5 μM nonbiotinylated affinity ligand) and incubated at room temperature with shaking for 30 minutes. The kinase concentration in the eluates was measured by qPCR.
An 11-point 3-fold serial dilution of each test compound was prepared in 100% DMSO at 100× final test concentration and subsequently diluted to 1× in the assay (final DMSO concentration=1%). Most Kds were determined using a compound top concentration=30,000 nM. If the initial Kd determined was <0.5 nM (the lowest concentration tested), the measurement was repeated with a serial dilution starting at a lower top concentration.
Binding constants (Kds) were calculated with a standard dose-response curve using the Hill equation: […]
The Hill Slope was set to −1.
Curves were fitted using a non-linear least square fit with the Levenberg-Marquardt algorithm.

Row | SMILES | inhibition at 1 µM [1] [%] | further results
1 | [2H]C([2H])([2H])n1nc(-c2ccnc(Nc3cc(NC(=O)C4CC4)ncc3C(=O)CC)c2OC)cc1P(C)(C)=O [Compound B35] | 60 | Kd [2]: 0.025 nM
2 | CCC(=O)c1cnc(NC(=O)C2CC2)cc1Nc1cccc(-c2ccccc2P(C)(C)=O)c1OC [Compound B10] | 50 | –
3 | CNC(=O)c1nnc(NC(=O)C2CC2)cc1Nc1cccc(-c2ncc(P(C)(C)=O)cn2)c1OC [Compound B40] | 58 | inhibition at 0.1 µM [1]: 33%
4 | CCC(=O)c1nnc(NC(=O)C2CC2)cc1Nc1cccc(-c2cc(P(C)(C)=O)n(C)n2)c1OC [Compound B18, N-(5-((3-(5-(dimethylphosphoryl)-1-methyl-1H-pyrazol-3-yl)-2-methoxyphenyl)amino)-6-propionylpyridazin-3-yl)cyclopropanecarboxamide] | 42 | –
5 | CCC(=O)c1cnc(NC(=O)C2CC2)cc1Nc1cc(F)cc(-c2cc(P(=O)(CC)CC)n(C)n2)c1OC [Compound B32] | 88 | Kd [2]: 0.025 nM
6 | [2H]C([2H])([2H])NC(=O)c1nnc(NC(=O)C2CC2)cc1Nc1cccc(-c2cc(P(=O)(CC)CC)n(C)n2)c1OC [Compound B45] | 95 | inhibition at 0.05 µM [1]: 44%; inhibition at 0.2 µM [1]: 83%
7 | CCC(=O)c1cnc(NC(=O)C2CC2)cc1Nc1cccc(-c2ccc(P(C)(C)=O)nc2)c1OC [Compound B21] | 49 | inhibition at 0.1 µM [1]: 6%
8 | CCC(=O)c1cnc(NC(=O)C2CC2)cc1Nc1cccc(-c2cc(P(C)(C)=O)n(C)n2)c1C [Compound B14] | 27 | –
9 | CCC(=O)c1cnc(NC(=O)C2CC2)cc1Nc1cccc(-c2nc(P(C)(C)=O)cs2)c1OC [Compound B6] | 36 | –
10 | CCP(=O)(CC)c1cc(-c2cccc(Nc3cc(NC(=O)C4CC4)nnc3C(=O)NC)c2OC)nn1C [Compound B43] | 84 | –
11 | CCC(=O)c1cnc(NC(=O)C2CC2)cc1Nc1cccc(-c2cc(P(C)(C)=O)n(C)n2)c1F [Compound B12] | 0 | –
12 | CCC(=O)c1cnc(NC(=O)C2CC2)cc1Nc1cccc(-c2cc(P(C)(C)=O)nn2C)c1OC [Compound B9] | 40 | –
13 | CCC(=O)c1cnc(NC(=O)C2CC2)cc1Nc1nccc(-c2cc(P(C)(C)=O)n(C)n2)c1OC [Compound B19, N-(4-((4-(5-(dimethylphosphoryl)-1-methyl-1H-pyrazol-3-yl)-3-methoxypyridin-2-yl)amino)-5-propionylpyridin-2-yl)cyclopropanecarboxamide] | 88 | inhibition at 0.01 µM [1]: 41%; inhibition at 0.1 µM [1]: 74%; Kd [2]: 0.075 nM
14 | CCC(=O)c1cnc(NC(=O)C2CC2)cc1Nc1cccc(-c2cc(P(=O)(CC)CC)n(C)n2)c1OC [Compound B24] | 93 | inhibition at 0.1 µM [1]: 31%; Kd [2]: 0.03 nM
15 | CCC(=O)c1cnc(NC(=O)C2CC2)cc1Nc1cccc(-c2cc(P(C)(C)=O)n(C)n2)c1C#N [Compound B20] | 20 | inhibition at 0.01 µM [1]: 7%; inhibition at 0.1 µM [1]: 8%
16 | CCC(=O)c1cnc(NC(=O)C2CC2)cc1Nc1cccc(-c2cc(P3(=O)CCCC3)n(C)n2)c1OC [Compound B30] | 75 | –
17 | [2H]C([2H])([2H])NC(=O)c1nnc(NC(=O)C2CC2)cc1Nc1cccc(-c2cc(P(C)(C)=O)n(C)n2)c1OC [Compound B42] | 65 | –
18 | CCC(=O)c1cnc(NC(=O)C2CC2)cc1Nc1cccc(-c2cc(P(C)(C)=O)cs2)c1OC [Compound B27] | 38 | –

Row | SMILES | inhibition at 1 µM [1] [%] | further results
19 | [2H]C([2H])([2H])n1nc(-c2ccnc(Nc3cc(NC(=O)C4CC4)ncc3C(=O)CC)c2OC)cc1P(=O)(CC)CC [Compound B33] | 86 | Kd [2]: 0.056 nM
20 | CCC(=O)c1nnc(NC(=O)C2CC2)cc1Nc1cc(F)cc(-c2cc(P(C)(C)=O)n(C)n2)c1OC [Compound B25] | 13 | –
21 | CCC(=O)c1cnc(NC(=O)C2CC2)cc1Nc1cc(F)cc(-c2ncc(P(C)(C)=O)cn2)c1OC [Compound B23] | 46 | inhibition at 0.1 µM [1]: 8%
22 | CCC(=O)c1nnc(NC(=O)C2CC2)cc1Nc1cccc(-c2ccc(P(C)(C)=O)cn2)c1OC [Compound B28] | 35 | –
23 | CCC(=O)c1cnc(NC(=O)C2CC2)cc1Nc1cc(F)cc(-c2cc(P(C)(C)=O)n(C)n2)c1OC [Compound B17] | 67 | inhibition at 0.01 µM [1]: 25%; inhibition at 0.1 µM [1]: 45%
24 | CCC(=O)c1nnc(NC(=O)C2CC2)cc1Nc1cccc(-c2cc(P(C)(C)=O)n(CC)n2)c1OC [Compound B31] | 26 | –
25 | CNC(=O)c1nnc(NC(=O)C2CC2)cc1Nc1cccc(-c2cc(P(=O)(C3CC3)C3CC3)n(C)n2)c1OC [Compound B44] | 81 | –
26 | CCC(=O)c1cnc(NC(=O)C2CC2)cc1Nc1cccc(-c2cc(P(C)(C)=O)n(C3CC3)n2)c1OC [Compound B16] | 55 | inhibition at 0.01 µM [1]: 35%; inhibition at 0.1 µM [1]: 38%
27 | CCC(=O)c1cnc(NC(=O)C2CC2)cc1Nc1cccc(-c2cc(P(C)(C)=O)n(C)n2)c1 [Compound B15] | 45 | –
28 | CNC(=O)c1nnc(NC(=O)C2CC2)cc1Nc1cccc(-c2cc(P(C)(C)=O)n(C)n2)c1OC [Compound B39] | 80 | inhibition at 0.1 µM [1]: 34%; Kd [2]: 0.0064 nM
29 | CCC(=O)c1cnc(NC(=O)C2CC2)cc1Nc1nccc(-c2ncc(P(=O)(CC)CC)cn2)c1OC [Compound B36] | 75 | –
30 | CCC(=O)c1cnc(NC(=O)C2CC2)cc1Nc1cccc(-c2nc(P(C)(C)=O)ns2)c1OC [Compound B1, N-(4-((3-(3-(dimethylphosphoryl)-1,2,4-thiadiazol-5-yl)-2-methoxyphenyl)amino)-5-propionylpyridin-2-yl)cyclopropanecarboxamide] | 0 | inhibition at 0.01 µM [1]: 0%; inhibition at 0.1 µM [1]: 0%
31 | CCC(=O)c1cnc(NC(=O)C2CC2)cc1Nc1ncnc(-c2cc(P(=O)(C3CC3)C3CC3)n(C)n2)c1OC [Compound B46, N-(4-((6-(5-(dicyclopropylphosphoryl)-1-methyl-1H-pyrazol-3-yl)-5-methoxypyrimidin-4-yl)amino)-5-propionylpyridin-2-yl)cyclopropanecarboxamide] | 96 | inhibition at 0.05 µM [1]: 70%; inhibition at 0.2 µM [1]: 88%
32 | CCC(=O)c1cnc(NC(=O)C2CC2)cc1Nc1cccc(-c2cccc(P(C)(C)=O)c2)c1OC [Compound B7] | 46 | –
33 | CCC(=O)c1cnc(NC(=O)C2CC2)cc1Nc1cccc(-c2ccc(P(C)(C)=O)nn2)c1OC [Compound B8] | 33 | –
34 | CCC(=O)c1cnc(NC(=O)C2CC2)cc1Nc1nccc(-c2cc(P(=O)(CC)CC)n(C)n2)c1OC [Compound B29] | 93 | Kd [2]: 0.01 nM
35 | [2H]C([2H])([2H])n1nc(-c2cccc(Nc3cc(NC(=O)C4CC4)ncc3C(=O)CC)c2OC)cc1P(=O)(CC)CC [Compound B34] | 87 | Kd [2]: 0.044 nM
